Laboratory results as given in US11213515B1, “Compounds that interact with the Ras superfamily for the treatment of cancers, inflammatory diseases, rasopathies, and fibrotic disease” (Shy Therapeutics LLC, priority 2017, dated 2022).

Biological target: KRas G12D/Q61H double mutant (Homo sapiens (Human), UniProt P01116, G12D/Q61H)
Experiment: Ras GTP binding domain inhibition assay (labeled GTP)
Conditions: 20 μM compound
Description: Buffer-I: • 50 mM Tris, pH 7.5 • 150 mM NaCl (optional) • 1 mM MgCl2 • 1 mM DTT. • KRas G12D mutant protein was expressed as a His-tagged protein. Purified His-KRas G12D protein was diluted in buffer-I to a final concentration of 3-10 μg/ml. • 200 μl of the diluted His-KRas G12D protein was added to a nickel coated 96 well plate and incubated overnight at 4° C. • The next day, wells were washed 3× in 200 μl of Buffer-I. • Then 200 μl of Buffer-I were added to each well in the presence of 1% DMSO. • Tested compounds were added to the protein-coated wells at a concentration of 20 μM, and incubated for 3 hours at room temperature. […]
Then 22 μl of Cy3-GTP or Cy5-GTP was added to each well. The labeled GTP was incubated for 45 min. at room temperature. • Following GTP incubation, wells were washed 3× in Buffer-I, and 200 μl of Buffer-I were added to each well. • Following washes, the amount of bound labeled-GTP was measured with an Eppendorf AF2200 plate reader.
By substituting KRas G12D mutant protein with KRas G12C mutant, KRas wild type, KRas Q61H mutant, KRas G12D/Q61H double mutant or KRas G12C/Q61H double mutant under the assay conditions described above, KRas G12C mutant KRas wild type, KRas Q61H mutant, KRas G12D/Q61H double mutant and KRas G12C/Q61H double mutant inhibition, respectively, were each determined.

Chain of KRas G12D/Q61H double mutant (P01116-2 other isoform, or with tags, fused parts or gaps G12D/Q61H): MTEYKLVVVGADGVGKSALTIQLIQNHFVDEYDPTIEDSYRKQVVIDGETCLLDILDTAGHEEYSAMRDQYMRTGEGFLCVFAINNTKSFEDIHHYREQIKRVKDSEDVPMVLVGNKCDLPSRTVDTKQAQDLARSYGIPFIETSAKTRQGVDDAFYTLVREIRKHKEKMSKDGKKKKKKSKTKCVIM

inhibition at 20 µM: 1 to 25%
Structure (SMILES): COCCn1c(SC(C)c2nc(-c3cccnc3)no2)nc2cc(Cl)ccc2c1=O (stereo not shown)
